Data as given in patent publication US20140230081A1, “POLYNUCLEOTIDE, POLYPEPTIDE, ANIMAL MODEL AND METHOD FOR THE DEVELOPMENT OF COMPLEMENT SYSTEM MODULATORS” (BAYER INTELLECTUAL PROPERTY GMBH, priority 2011, published 2014).
Several values for one entry are separate records, joined by “and”; a condition that tells them apart may be missing. Identical values can stand only once. Like-named read-outs stand apart in the source and are kept apart here. Values belong to the compound of their own block, whether it stands above or below them.

Experiments:
[1] = system: complement activation; conditions: cited from earlier work
[2] = system: complement activation; conditions: cited from earlier work; remark: listed apart in the source
[3] = system: porcine-to-human xenograft; conditions: perfused with human blood; cited from earlier work
[4] = system: IL1b expression; experiment: CLP model in hamster, IL1b expression in tissues (TaqMan RT-PCR); format: in vivo, Syrian Hamster; conditions: CLP+0.5 mg/kg, CLP+2.5 mg/kg and CLP+Alzet vs. CLP+vehicle; dose dependently; FIG. 11
Method: (§1) Hamster tissues were pulverized by grinding with liquid nitrogen. Total RNA was extracted, DNase I digestion was performed to remove residual genomic DNA and the RNA were reverse transcribed using random hexamer primers. Quantitative TaqMan RT-PCR analysis was performed using the Applied Biosystems PRISM 7900 sequence detection system. The thermal protocol was set to 2 min at 50° C., followed by 10 min at 95° C. and by 40 cycles of 15 s at 95° C. and 1 min at 60° C. Results were normalized to L32 controls, and relative expression was calculated according to the following formula: relative expression=2̂(15−(CT(probe)−CT(L32))). The parameter CT is defined as the cycle number at which the amplification plot passes a fixed threshold above baseline. […]
(§2) Total RNA was isolated from hamster tissues with the Trizol-Reagent protocol according to the manufacturer's specifications (Invitrogen; USA). […] For relative quantitation of the mRNA distribution of IL10, IL6 and IL1b, total RNA from each sample was first reverse transcribed. […] For relative quantitation of the distribution of IL10, IL6 or IL1b mRNA the Applied Biosystems PRISM 7900 sequence detection system was used according to the manufacturer's specifications and protocols. PCR reactions were set up to quantitate IL 10, IL6 or IL1b and the housekeeping gene L32. […]

[5] = system: IL10 expression; experiment: CLP model in hamster, IL10 expression in tissues (TaqMan RT-PCR); format: in vivo, Syrian Hamster; conditions: CLP+0.5 mg/kg, CLP+2.5 mg/kg and CLP+Alzet vs. CLP+vehicle, dose dependently
Method: Hamster tissues were pulverized by grinding with liquid nitrogen. Total RNA was extracted, DNase I digestion was performed to remove residual genomic DNA and the RNA were reverse transcribed using random hexamer primers. Quantitative TaqMan RT-PCR analysis was performed using the Applied Biosystems PRISM 7900 sequence detection system. The thermal protocol was set to 2 min at 50° C., followed by 10 min at 95° C. and by 40 cycles of 15 s at 95° C. and 1 min at 60° C. Results were normalized to L32 controls, and relative expression was calculated according to the following formula: relative expression=2̂(15−(CT(probe)−CT(L32))). The parameter CT is defined as the cycle number at which the amplification plot passes a fixed threshold above baseline.
(§3) Midline incision was made in the Linea Alba of the peritoneal cavity and the cecum was exposed. 50% of the cecum was tied off by placing a tight ligature around the cecum. For the CLP model two puncture wounds were made with an 18-gauge needle into the cecum and small amounts of cecal contents were expressed through the wounds, situs was flushed with 0.5 mL sterile saline. Finally, the cecum was replaced into the peritoneal cavity and the laparotomy site was closed. The sham group underwent abdominal surgery; the cecum was exposed and replaced without ligation or puncture of the cecum. Situs was flushed with 0.5 mL sterile saline and the laparotomy site was closed.
C5aR Antagonist was dissolved in DMSO and diluted with sterile saline solution. The final solution contained 5% DMSO. […]
as §2

[6] = system: C5aR; conditions: cynomolgus monkey neutrophils; cited from earlier work
[7] = system: IL6 expression; experiment: CLP model in hamster, IL6 expression in tissues (TaqMan RT-PCR); format: in vivo, Syrian Hamster; conditions: CLP+0.5 mg/kg, CLP+2.5 mg/kg and CLP+Alzet vs. CLP+vehicle, dose dependently
Method: as §1, §2

[8] = system: white blood cell counts; experiment: CLP model in hamster, hemogram (white blood cell counts of EDTA whole blood); format: in vivo, Syrian Hamster; conditions: CLP+0.5 mg/kg, CLP+2.5 mg/kg and CLP+Alzet compared to CLP+vehicle; FIG. 24
Method: Blood samples were obtained under light Isoflurane anesthesia from the cavernous sinus with a capillary at different time points/final exsanguination by cannulation of the carotid artery after 24 hr to allow measurements of differential blood counts. Blood samples for basal blood cell counts were collected from the cavernous sinus one week before study begin. Blood was collected into EDTA tubes and blood cell counts were performed on an automated cell counter.
as §3
C5aR Antagonist was dissolved in DMSO and diluted with sterile saline solution. The final solution contained 5% DMSO. […] The study medication was given s.c. 30 min before and 2 h after CLP surgery. […]

[9] = system: C5aR; conditions: gerbil neutrophils; cited from earlier work
[10] = system: hamster C5aR1; experiment: Receptor activation of hamster C5aR1, reduction by antagonist; format: cell-based; conditions: activated by human C5a ligand
[11] = biological target: hamster C5aR1 polypeptide (hamster); experiment: cell-based or functional assay
Sequence of hamster C5aR1 polypeptide (hamster) (chain, as listed by the source limits assumed): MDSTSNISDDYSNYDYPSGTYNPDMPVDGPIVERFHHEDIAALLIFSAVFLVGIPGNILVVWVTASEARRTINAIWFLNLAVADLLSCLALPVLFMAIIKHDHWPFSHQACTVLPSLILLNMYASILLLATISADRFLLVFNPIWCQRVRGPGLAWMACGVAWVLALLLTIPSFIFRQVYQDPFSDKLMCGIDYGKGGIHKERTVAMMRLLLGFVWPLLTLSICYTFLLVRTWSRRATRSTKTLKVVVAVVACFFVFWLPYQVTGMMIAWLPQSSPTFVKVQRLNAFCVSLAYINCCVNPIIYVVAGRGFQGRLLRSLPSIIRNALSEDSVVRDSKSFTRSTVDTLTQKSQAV

[12] = system: classical complement pathway; conditions: cited from earlier work
[13] = system: hamster C5aR1; experiment: C5aR1 signalling via Calcium release (luminescence) in CHOmtCly_hamster-C5aR1/Galpha16 cells; format: cell-based; conditions: peptide at 7 μM; three CHOmtCly_hamster-C5aR1/Galpha16 cell lines, respectively; measured for 60 seconds; listed as Bachem peptide 83462
Method: CHO K1 cell lines expressing mitochondrial Clytin (CHOmtCly) were co-transfected with the expression vector pcDNA3 harbouring the cDNA of hamster C5aR1 und pcDNA3-Galpha16 to allow the measurement of C5aR1 signalling via Calcium release (generated cells are named CHOmtCly_hamster-C5aR1/Galpha16). Control cells (CHOmtCly_pcDNA3) were generated by transfection of CHOmtCly cells with a corresponding amount of empty pcDNA3 vector only. In brief, 10^6 cells were transfected with 2 μg DNA by use of the Nucleofector (Amaxxa) program U-27. Transfected cells were seeded in 384-well MTP with a density of 250 cells per well. After 24 h incubation at 37° C. selection media containing a final concentration of 1 mg/ml G418 was added. After one week of selection plates were duplicated and tested for C5aR1 signalling. Cells were loaded with Coelenterazine for 3 h, than buffer or the C-terminal peptide of human C5a (Bachem H3462) was added at a final concentration of 7 μM. Luminescence (RLU) was measured for 60 seconds.
For activity measurement, three CHOmtCly_hamster-C5aR1/Galpha16 cell lines and three CHOmtCly cDNA3 cell lines were analyzed, respectively.
Target sequence in this assay (as listed by the source): as the sequence (chain, as listed by the source limits assumed) above
Target sequence in this assay (P30679 whole entry partner): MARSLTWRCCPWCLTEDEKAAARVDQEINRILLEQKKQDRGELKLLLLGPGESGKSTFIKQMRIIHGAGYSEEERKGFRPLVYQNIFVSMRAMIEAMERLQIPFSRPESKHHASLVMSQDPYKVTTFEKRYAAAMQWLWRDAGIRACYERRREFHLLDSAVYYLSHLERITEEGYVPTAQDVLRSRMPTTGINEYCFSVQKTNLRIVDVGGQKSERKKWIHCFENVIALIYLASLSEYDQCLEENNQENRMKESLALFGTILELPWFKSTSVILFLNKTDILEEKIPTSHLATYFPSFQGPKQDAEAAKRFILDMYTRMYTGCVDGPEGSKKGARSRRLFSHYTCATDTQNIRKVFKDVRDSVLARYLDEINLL

[14] = system: complement-mediated tissue injury; conditions: models of ischemia-reperfusion and animal models of human acute and chronic inflammatory diseases; cited from earlier work
[15] = in vivo; cited from earlier work

Compound: CC[C@H](C)[C@H](N)C(=O)N[C@H]1CSSC[C@@H](C(=O)N[C@H](C(N)=O)[C@@H](C)O)NC(=O)[C@H](CCCN=C(N)N)NC(=O)[C@H](Cc2cnc[nH]2)NC(=O)[C@H](Cc2cnc[nH]2)NC(=O)CNC(=O)[C@H](Cc2c[nH]c3ccccc23)NC(=O)[C@H](CC(=O)O)NC(=O)[C@H](CCC(N)=O)NC(=O)[C@H](C(C)C)NC(=O)[C@H](C(C)C)NC1=O [Compstatin]
side effects ([1]; in vivo): without significant side effects | heparine and protamine-induced complement activation ([1]; primates): inhibit | complement activation in human serum [2]: inhibit | lifetime of a porcine-to-human xenograft [3]: prolongs

receptor activation of hamster C5aR1 [10]: can be reduced
Compound: COc1ccc2c(c1)C(C(=O)N(Cc1ccc(N(C)C)cc1)c1ccc(C(C)C)cc1)CCC2.Cl (stereo not drawn) [W-54011]
expression of IL1b in LV (left ventricle) tissue [4]: decreased | expression of IL10 in kidney tissue ([5]; FIG. 6): decreased | expression of IL10 in LV (left ventricle) tissue ([5]; FIG. 7): decreased | expression of IL10 in lung tissue ([5]; FIG. 8): decreased | inhibition of C5a-mediated responses [6]: inhibits | expression of IL6 in LV (left ventricle) tissue ([7]; FIG. 9): decreased | expression of IL6 in lung tissue ([7]; FIG. 10): decreased | WBC (white blood cell counts) [8]: higher | inhibition of C5a-mediated responses [9]: inhibits

Luminescence (RLU), calcium release via mitochondrial Clytin, peptide at 7 µM, measured for 60 seconds; cell line 1 of 3 [11]: 248000 RLU | Luminescence (RLU), calcium release via mitochondrial Clytin, peptide at 7 µM, measured for 60 seconds; cell line 2 of 3 [11]: 243000 RLU | Luminescence (RLU), calcium release via mitochondrial Clytin, peptide at 7 µM, measured for 60 seconds; cell line 3 of 3 [11]: 203000 RLU
Compound: C-terminal peptide of human C5a (Bachem H3462) (from UniProt P01031 742-751)

Compound: CEGPFGPRHDLTFCW [2J]
IC50 [12]: 2 to 6 µM

Compound: H3462: C-terminal peptide of human C5a (Bachem H3462) (ISHKDMQLGR)
Luminescence (RLU) on stimulation [13]: 247943 RLU and 243143 RLU and 203151 RLU

Compound: sCR1: soluble version of recombinant human CR1 lacking the transmembrane and cytoplasmic domains
complement-mediated tissue injury [14]: reduce | half-life in circulation [15]: short
